Where two headings read alike, the source gives them in different places. Where no end group is shown, it is not given here.

Results on 3 substances are retold here after paper PMC11578372, “ProT‐Diff: A Modularized and Efficient Strategy for De Novo Generation of Antimicrobial Peptide Sequences by Integrating Protein Language and Diffusion Models” (Advanced Science, 2024).

For series [1], the system named is E. coli DH5α. The series can be described thus: TEM of cell membrane damage. Type of series: cell-based, Escherichia coli. As to conditions: 1× MIC, 2–8 h, 37 °C. How it is done: Transmission Electron Microscopy (TEM) was employed to assess the cell membrane damage induced by AMPs. First, 50 µL of E. coli DH5α culture with an OD600 of ≈0.1 were mixed with 50 µL of AMPs solution (at 1× MIC) in a 96‐well plate. This mixture was incubated at 37 °C for 2, 4, 8, and 16 h. Following the incubation period, the bacteria were pelleted by centrifugation at 6,000 rpm for 5 min and fixed with 2.5% (vol/vol) glutaraldehyde in phosphate buffer (PB, 0.1 M, pH 7.4). Subsequently, the cells were postfixed with 1% (wt/vol) osmium tetraoxide in PB for 2 h at 4 °C, and were dehydrated through a graded ethanol series (30%, 50%, 70%, 80%, 90%, 100%, with each step lasting 7 min) before being put in pure acetone by two 10‐min steps. Following dehydration, the samples were subjected to infiltration using progressively mixed combinations of acetone and SPI‐PON812 resin (composed of 16.2 g SPI‐PON812, 10 g DDSA, and 8.9 g NMA) in ratios of 3:1, 1:1, and 1:3. The infiltration medium was then replaced with pure resin. Finally, the cells were embedded in pure resin containing 1.5% BDMA and polymerized for 12 h at 45 °C, followed by an additional 48 h polymerization at 60 °C. Ultrathin sections (70 nm thick) were obtained using a microtome (Leica EM UC6), double‐stained with uranyl acetate and lead citrate, and examined using a transmission electron microscope (FEI Tecnai Spirit 120 kV).

For series [2], the system named is all tested bacteria. Type of series: cell-based. The source says: Gram‐negative bacteria include E. coli DH5α, E. coli O157: H7 CICC 21530, S. typhimurium CICC 21484, A. baumannii AB6, and P. aeruginosa ATCC 15442. Gram‐positive bacteria included S. aureus ATCC 33591, Methicillin‐resistant MRSA ATCC 43300, B. subtilis ATCC 9372. L. sphaericus CCM 2177. Two E. coli clinical isolates with mgrB mutations from Tongji Hospital (Wuhan, China) were used in this study, namely E. coli mgrB mutant 2^# and E. coli mgrB mutant 23^#.
(§1) For the MIC determination of selected AMPs, 100 ul bacterial culture with an OD600 value of ≈0.1 was incubated with AMPs at concentrations ranging from 0 to 100 µM at 37 °C for 15–18 h. Herein, the MIC was determined as the minimum concentration of AMPs at which no detectable bacterial growth was observed.
(§2) All experiments were conducted with a minimum of four independent replicates. Student's t‐test was used to compare the means between the experimental and control groups (two‐sided).

Series [3] relates to E. coli mgrB mutant 23#. The series can be described thus: Lethal murine acute peritonitis model. As to conditions: for survival versus PBS treatment group (log-rank test): AMP_2 single IP dose, penicillin 50000 units per kg every 12 h for 3 d. Type of series: in vivo, mouse (female BALB/c). How it is done:
Female BALB/c mice weighing ≈18 g and aged 5–6 weeks were used to build a lethal murine acute peritonitis model according to previously established protocols.^[ [43], [44], [45] ^] The mice were subjected to intraperitoneal injections with E. colimgrB mutant 23^#suspension (0.2 mL per mouse) at concentration of 5×10^5 CFU mL^−1, 5×10^6 CFU mL^−1, 5×10^7 CFU mL^−1, respectively. […] Each group comprised of eight mice.
Subsequently, the mice were administered varying doses of AMP_2 (0.125, 0.25, 0.5, 1, 2, and 4 mg kg^−1) immediately after infection. As controls, the infected mice received intraperitoneal injections of sterile PBS or underwent penicillin treatment (0.2 mL per mouse). The single dose of penicillin administered was 50000 units per kg, and the mice received antibiotic treatment every 12 h for 3 d. The behavior and survival of the animals were monitored over a 7‐day period. Blood samples were collected from the mice before euthanasia for routine blood tests. The experiments were conducted in groups of eight mice.

Series [4] deals with E. coli. Type of series: cell-based, Escherichia coli. On the procedure: as §1, §2
The nature of series [5]: Cytotoxicity against mammalian cells (CCK-8). Particulars: human, 293T, CCK-8, n = 6, read-out: half maximal inhibitory concentration (IC50), cytotoxicity. Type of series: cell-based. How it is done:
Cell Counting Kit 8 (CCK‐8) assay was used to assess the cytotoxicity of the AMPs against mammalian cells. Specifically, ≈4000 293T cells were seeded per well in a 96‐well cell culture plate (Corning, US), and were incubated at 37 °C with 5% CO2 for 24 h. Subsequently, the culture medium was replaced by different concentrations of AMPs solution diluted with the medium. The cells were co‐incubated with AMPs solution for an additional 24 h at 37 °C. And then, 10 µl of the CCK‐8 reagent (Beijing Lablead Biotech, China) was added to each well for 2 h of incubation at 37 °C. Finally, OD at 450 nm was measured using an imaging multimode microplate reader (Cytation 3, BioTek, US). Cell viability was defined as the percentage of each concentration relative to the control. Six replicates were used for the CCK‐8 assay.

Series [6] has as its system E. coli. Particulars: cited from earlier work. The text has this:
(§3) In general, a higher antimicrobial potency in antimicrobial peptides often correlates with an elevated risk of heightened cytotoxicity and hemolytic activity. […] However, even at a ...

Series [7] relates to human cell. Particulars: 10 µg mL−1 (3.5 µM); cited from earlier work.
Excerpt: as §3

The conditions of series [8]: 1 µg mL−1 (0.35 µM); cited from earlier work.
Excerpt: as §3

Broadly, the MIC is the smallest concentration in the dilution series that meets the test's criterion for growth inhibition. On to “KWKFFKKIRKVGKKIRKVIKKIGKAVGAAAQAAGQAANA [AMP_2]”, for which the “bacterial morphology by TEM” value in series [1] is reported as “serious leakage of cellular contents”. Further, the “MIC / spectrum against the tested bacteria” value in series [2] is on record as at most 20 µM. For the same substance, the “body weight by the sixth day post-infection” value in series [3] (4 mg kg−1 IP, surviving infected mice) is listed as “slight decrease in body weight”. Further, the “survival versus PBS treatment group (log-rank test)” value in series [3] (8 mice per group) is “significant differences in survival”. The “routine blood components, treatment versus control group” value in series [3] (blood collected before euthanasia, infected mice treated with AMP_2) is “not significantly different”. Besides, the “protection of infected mice (survival)” value in series [3] (single IP dose 0.5 mg kg−1 immediately after infection, 5×10^5 CFU mL−1, 7-day observation, 8 mice per group) is on record as “complete protection”. The MIC in series [4] turned out to be 2.5 µM. For the same substance, the IC50 at 24 h in series [5] is over 40 µM.
For the substance melittin, in series [6], the minimal inhibitory concentration (MIC) is 1 to 15 µM. In addition, the human cell death in series [7] is over 50%. Further, the hemolysis of cells in series [8] is listed as 50%.
On to penicillin [reference compound], for which the “survival versus PBS treatment group (log-rank test)” value in series [3] (8 mice per group) is “no significant difference”.
